The test system of one test is primary rat hepatocytes. Nature of the test: Primary rat hepatocyte 3H-thymidine incorporation. The class given is cell-based. The note with it: subconfluent primary rat hepatocytes, 36 hours, serum-free. The method, then: As a first indication of BMP-9 effects on confluent, serum starved HepG2 cells, cell proliferation is examined as determined by ^3 H-thymidine incorporation and cell counting. HepG2 cells are plated at […] in 96 well plates and cultured for 48 hours in DME/0.1% FCS to synchronize the cell cycle are treated for 24 hours with or without BMP-9 in the presence of 0.1% FCS. In ^3 H-thymidine incorporation assays, ^3 H-thymidine was included during the last 4 hours of treatment and cellular DNA was collected with a 96 well plate cell harvester. Proliferation was assayed by quantifying ethanol-precipitable ^3 H-thymidine incorporation by liquid scintillation counting. For cell counting assays, cells were trypsinized and counted with a hemacytometer. […] BMP-9 stimulates ^3 H-thymidine incorporation in HepG2 cells approximately five fold.
To determine if this proliferative effect of BMP-9 was unique to the HepG2 liver tumor cell line, primary rat hepatocytes were tested for effects of BMP-9 on ^3 H-thymidine incorporated as shown in FIG. 4.
(In general: Dividing cells build labelled thymidine or BrdU into new DNA.)

Test [1] relates to BMP-9 receptors expressed on HepG2 cells. Nature of the test: 125I-BMP-9 binding to HepG2 cells. The note with it: HepG2 cells, 125I-BMP-9 and 250-fold excess of unlabeled ligand. The method, then: BMP-9 responsiveness in parenchymal liver cells is tested by screening four liver cell lines for their ability to bind iodinated, CHO-derived BMP-9. […] Specific binding of BMP-9 to HepG2 cells is carried out by incubating HepG2 cells grown to confluence in Dulbecco's Modified Eagle's Medium (DME) containing 10% heat-inactivated fetal calf serum (FCS) on gelatinized 6 well plates with 2 ng/ml ^125 I-BMP-9 and increasing concentrations of unlabelled BMP-9 in binding buffer (136.9 mM NaCl, 5.37 mM KCl, 1.26 mM CaCl2, 0.64 mM MgSO4, 0.34 mM Na2 HPO4, 0.44 mM KH2 PO4, 0.49 mM MgCl2, 25 mM HEPES and 0.5% BSA, pH 7.4) for 20 hours at 4° C. to achieve binding equilibrium. This incubation follows a one hour preincubation at 37° C. in binding buffer alone. For crosslinking experiments, the cells were incubated with 500 μM disuccinimidyl suberate for 20 minutes at […] following binding. Cell extracts were analyzed on SDS-PAGE. […] To test the binding specificity of the receptors for BMP-9, HepG2 cells were incubated with ^125 I-BMP-9 and a 250-fold excess of different unlabeled ligands.

The test system of test [2] is Articular cartilage explants from calf carpal joints. Nature of the test: Articular cartilage assay (proteoglycan synthesis, sulfate incorporation). The class given is cell-based. The settings on record: 100 ng/ml, calf articular cartilage explants. The method, then:
The effect of BMP-9 on articular cartilage proteoglycan and DNA synthesis is assayed to determine if BMP-9 is involved in the regulation of metabolism of differentiated articular cartilage.
Articular cartilage explants from calf carpal joints are maintained in DMEM with 50 μg/ml ascorbate, 4 mM glutamine and antibiotics for 3 days. Cytokines (rhBMP-2, rhBMP-4, rhBMP-6 and rhBMP-9, IGF-1, bFGF (1-1000 ng/ml), and TGFβ (1-100 ng/ml)) are added to the medium and culture is continued for 3 more days. Medium is changed daily. Twenty-four hours prior to harvest, explants are pulsed with 50 μCi/ml ^35 SO4 or 25 μCi/ml ^3 H-thymidine. Explants are solubilized and separation of free isotope is performed by gel chromatography. Total DNA of each explant is measured by a spectrophotometric assay.

The next test relates to IMCD-3 cells. Put plainly: IMCD-3 cell condensation and tubulogenesis in collagen matrix. The class given is cell-based. The settings on record: IMCD-3 cells in 3-dimensional collagen gel, 100 ng/ml, 6 days, serum-free. The method, then:
Several cell lines are tested for BMP-9 responsiveness in vitro. Cell proliferation, as indicated by [^3 H]thymidine incorporation, is determined in cell lines derived from kidney and lung. Cell proliferation is determined by measuring [^3 H]thymidine incorporation in subconfluent cells treated for 24 h with or without growth factors. NRK-52E (ATCC CRL 1571), WI-38 (ATCC CCL-75), CCD-11Lu (ATCC CCL-202), CCD-16Lu (ATCC CCL-204), and A-549 (ATCC CCL-185) cell lines are placed at 10^4 cells/well in 96 well plates and assayed for [^3 H]thymidine incorporation as described above. IMCD-3 cells (ATCC #CRL-2123) are cultured in a collagen matrix as described by Barros et al., PNAS USA 92:4412-4416 (1995), and treated with growth factors for 6 days to allow tubule formation.
In contrast, BMP-9 appeared to stimulate proliferation in several fibroblast cell lines derived from lung. […] The effect of rhBMP-9 on tubulogenesis was examined in IMCD-3 cells, another epithelial kidney cell line. […] It is therefore contemplated that both lung and kidney cells are physiological targets for BMP-9.

Regarding “EGF: epidermal growth factor (NSDSECPLSHDGYCLHDGVCMYIEALDKYACNCVVGYIGERCQYRDLKWWELR; UniProt P01133 971-1023, looked up)”, in the test with primary rat hepatocytes, the 3H-thymidine incorporation result was “markedly”.

TGF-β1: transforming growth factor β1: in test [1], the “crossreactivity of BMP-9 receptors with unlabeled ligand” value is listed as “no crossreactivity”. The 3H-thymidine incorporation entry in the test with primary rat hepatocytes was “inhibitory, not stimulatory”. Consider TGFβ, for which the proteoglycan synthesis result in test [2] is on record as “significantly more active in stimulating proteoglycan synthesis”.

Regarding “rhHGF: recombinant human HGF, inducer of tubulogenesis in IMCD-3 cells”, in the test on IMCD-3 cells, the “cell condensation and tubulogenesis” value is “induced a marked branching tubulogenesis”.
